Results as given in PubChem BioAssay (NCI).
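Protocol summary: plate cells (96-well), add compound at 5 concentrations, incubate 48 h, interpolate endpoints linearly. Abbreviation: GI50, concentration required for 50% inhibition of growth. The concentration for full growth arrest is given as TGI.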

Experiments:
Assay in all cases: NCI anticancer screen, dose series, 48 h
[1] = test system: IGROV1 ovarian
[2] = test system: SNB-75 CNS
[3] = test system: NCI-H460 lung
[4] = test system: SW-620 colon
[5] = test system: OVCAR-4 ovarian
[6] = test system: U251 CNS
[7] = test system: TK-10 renal
[8] = test system: PC-3 prostate
[9] = test system: SNB-19 CNS
[10] = test system: EKVX NSCLC
[11] = test system: NCI-H23 lung
[12] = test system: HL-60(TB) leukemia
[13] = test system: KM12 colon
[14] = test system: UO-31 renal
[15] = test system: HS 578T breast
[16] = test system: UACC-257 melanoma
[17] = test system: UACC-62 melanoma
[18] = test system: 786-0 renal
[19] = test system: T-47D breast
[20] = test system: SN12C renal
[21] = test system: MDA-MB-435
[22] = test system: HCT-15 colon
[23] = test system: SR leukemia
[24] = test system: SF-539 CNS
[25] = test system: RXF 393 renal
[26] = test system: COLO 205 colon
[27] = test system: HCT-116 colon
[28] = test system: SF-268 CNS
[29] = test system: MCF7 breast
[30] = test system: SK-MEL-5 melanoma
[31] = test system: SK-OV-3 ovarian
[32] = test system: ACHN renal
[33] = test system: LOX IMVI melanoma
[34] = test system: MDA-MB-231 breast
[35] = test system: HOP-62 NSCLC
[36] = test system: HCC-2998 colon
[37] = test system: CAKI-1 renal
[38] = test system: A498 renal
[39] = test system: SK-MEL-28 melanoma
[40] = test system: SF-295 CNS
[41] = test system: K-562 leukemia
[42] = test system: OVCAR-5 ovarian
[43] = test system: SK-MEL-2 melanoma
[44] = test system: A549 NSCLC
[45] = test system: BT-549 breast
[46] = test system: NCI-H226 lung
[47] = test system: OVCAR-8 ovarian
[48] = test system: MOLT-4 leukemia
[49] = test system: NCI-H522 lung
[50] = test system: RPMI-8226 leukemia
[51] = test system: NCI/ADR-RES ovarian
[52] = test system: DU-145 prostate
[53] = test system: HT29 colon
[54] = test system: MALME-3M melanoma
[55] = test system: M14 melanoma
[56] = test system: CCRF-CEM leukemia

In the case of `O=[N+]([O-])c1ccc(-c2nnc(SCc3ccc(O)c4ncccc34)o2)cc1`, the GI50 [1] is reported as 649 nM, the TGI [1] is reported as over 100000 nM and the GI50 [2] is reported as 386 nM. It also gave a TGI [2] of over 100000 nM, a GI50 [3] of 260 nM and a TGI [3] of over 62700 nM. The GI50 [4] was 547 nM, the TGI [4] was over 100000 nM and the GI50 [5] was 1010 nM. For the same compound, the TGI [5] was over 100000 nM, the GI50 [6] was 181 nM and the TGI [6] was over 100000 nM. The GI50 [7] was 785 nM, the TGI [7] was over 100000 nM and the GI50 [8] was 358 nM. The TGI [8] was over 100000 nM, the GI50 [9] was 351 nM and the TGI [9] was over 100000 nM. The GI50 [10] was 746 nM, the TGI [10] was over 100000 nM and the GI50 [11] was 407 nM. For the same compound, the TGI [11] was over 100000 nM, the GI50 [12] was 425 nM and the GI50 [13] was 572 nM. It also gave a TGI [13] of over 100000 nM, a GI50 [14] of 347 nM and a TGI [14] of over 53000 nM. It also gave a GI50 [15] of 417 nM, a TGI [15] of over 100000 nM and a GI50 [16] of 511 nM. It also gave a TGI [16] of 27500 nM, a GI50 [17] of 810 nM and a TGI [17] of 12600 nM. The GI50 [18] was 674 nM, the TGI [18] was over 100000 nM and the GI50 [19] was 923 nM. For the same compound, the TGI [19] was 69000 nM, the GI50 [20] was 326 nM and the TGI [20] was over 100000 nM. The GI50 [21] was 331 nM, the TGI [21] was over 100000 nM and the GI50 [22] was 333 nM. It also gave a TGI [22] of over 100000 nM, a GI50 [23] of 424 nM and a TGI [23] of over 100000 nM. The GI50 [24] was 877 nM, the TGI [24] was over 100000 nM and the GI50 [25] was 732 nM. It also gave a TGI [25] of over 100000 nM, a GI50 [26] of 4110 nM and a TGI [26] of over 84500 nM. It also gave a GI50 [27] of 189 nM, a TGI [27] of over 100000 nM and a GI50 [28] of 608 nM. For the same compound, the TGI [28] was over 100000 nM, the GI50 [29] was 224 nM and the TGI [29] was over 100000 nM. The GI50 [30] was 357 nM, the TGI [30] was over 30600 nM and the GI50 [31] was 379 nM. The TGI [31] was 3920 nM, the GI50 [32] was 360 nM and the TGI [32] was over 100000 nM. For the same compound, the GI50 [33] was 334 nM, the TGI [33] was over 39000 nM and the GI50 [34] was 625 nM. It also gave a TGI [34] of over 100000 nM, a GI50 [35] of 590 nM and a TGI [35] of over 100000 nM. The GI50 [36] was 749 nM, the TGI [36] was over 100000 nM and the GI50 [37] was 561 nM. For the same compound, the TGI [37] was over 100000 nM, the GI50 [38] was 2520 nM and the TGI [38] was over 30400 nM. The GI50 [39] was 1120 nM, the TGI [39] was over 100000 nM and the GI50 [40] was 315 nM. The TGI [40] was over 100000 nM, the GI50 [41] was 363 nM and the TGI [41] was over 100000 nM. For the same compound, the GI50 [42] was 3710 nM, the TGI [42] was over 100000 nM and the GI50 [43] was 390 nM. For the same compound, the GI50 [44] was 378 nM, the TGI [44] was over 100000 nM and the GI50 [45] was 237 nM. The TGI [45] was over 100000 nM, the GI50 [46] was 3520 nM and the TGI [46] was over 100000 nM. For the same compound, the GI50 [47] was 310 nM, the TGI [47] was over 100000 nM and the GI50 [48] was 508 nM. The TGI [48] was over 100000 nM, the GI50 [49] was 381 nM and the TGI [49] was over 100000 nM. For the same compound, the GI50 [50] was 402 nM, the TGI [50] was over 100000 nM and the GI50 [51] was 551 nM. The TGI [51] was over 100000 nM, the GI50 [52] was 467 nM and the TGI [52] was over 100000 nM. It also gave a GI50 [53] of 4840 nM, a TGI [53] of over 100000 nM and a GI50 [54] of 569 nM. It also gave a TGI [54] of over 100000 nM, a GI50 [55] of 455 nM and a TGI [55] of 7560 nM. For the same compound, the GI50 [56] was 451 nM and the TGI [56] was over 100000 nM.
